One test has as its system Pseudomonas aeruginosa. Nature of the test: MIC, serial dilution in phenol red-glucose broth. Type of test: cell-based. Particulars: bactericidal, complete inhibition of growth, 37° C.; for MIC: Pseudomonas aeruginosa, read-out: MIC values for microorganism F (Pseudomonas aeruginosa). On the procedure:
(§1) The minimum inhibitory concentrations (MIC values) of the above compounds and their two-component combinations of 1:1 ratio by weight against the following microorganisms arising from mastitis and metritis processes of cattle were tested by using the serial dilution method in a phenol red-glucose broth medium (manufactured by DIFCO) or, by using a Sabouraud's broth medium, respectively in the cases of fungal strains.
F--Pseudomonas aeruginosa
(§2) Bacterial strains were cultivated at 37° C. whilst the fungal strain (Candida albicans) was propagated at 26° C.

A further test deals with Streptococcus faecalis. Nature of the test: MIC, serial dilution in phenol red-glucose broth. The format is cell-based. The note with it: bactericidal, complete inhibition of growth, 37° C.; for MIC: Enterococcus faecalis, read-out: MIC values for microorganism K (Streptococcus faecalis). On the procedure: as §1
K--Streptococcus faecalis
as §2

Another test relates to Candida albicans. The test can be described thus: MIC, serial dilution in Sabouraud's broth. Type of test: cell-based. Particulars: for MIC: Candida albicans, read-out: MIC values for microorganism G (Candida albicans). On the procedure:
as §1, §2

In another test the test system is Campylobacter fetus. The test can be described thus: MIC in semiliquid thiol culture medium. The format is cell-based. The note with it: bactericidal, complete inhibition of growth, 37° C.; for MIC: Campylobacter fetus, read-out: MIC values for microorganism O (Campylobacter fetus). The procedure:
as §1
(§3) Campylobacter strains were tested in a semiliquid thiol culture medium (manufactured by DIFCO). Bacteroides fragilis and Fusobacterium necrophorum strains were examined by using the agar dilution method on bloody agar containing also tryptose.
as §2

Another test has as its system Campylobacter jejuni. Nature of the test: MIC in semiliquid thiol culture medium. The format is cell-based. The note with it: bactericidal, complete inhibition of growth, 37° C.; for MIC: Campylobacter jejuni, read-out: MIC values for microorganism P (Campylobacter jejuni). On the procedure:
as §1, §3, §2

A further test deals with Streptococcus uberis. The test can be described thus: MIC, serial dilution in phenol red-glucose broth. The format is cell-based. Particulars: bactericidal, complete inhibition of growth, 37° C.; for MIC: Streptococcus uberis, read-out: MIC values for microorganism J (Streptococcus uberis). The procedure:
as §1, §2

Another test concerns Klebsiella pneumoniae. The test can be described thus: MIC, serial dilution in phenol red-glucose broth. The format is cell-based. Particulars: bactericidal, complete inhibition of growth, 37° C.; for MIC: Klebsiella pneumoniae, read-out: MIC values for microorganism E (Klebsiella pneumoniae). The procedure: as §1, §2
The test system of another test is Mycoplasma canadense. Nature of the test: MIC, serial dilution in phenol red-glucose broth. Type of test: cell-based. Particulars: bactericidal, complete inhibition of growth, 37° C.; for MIC: Mycoplasma, read-out: MIC values for microorganism V (Mycoplasma canadense). On the procedure:
as §1, §2

The next test relates to Mycoplasma bovirhinis. Nature of the test: MIC, serial dilution in phenol red-glucose broth. The format is cell-based. The note with it: bactericidal, complete inhibition of growth, 37° C.; for MIC: Mycoplasma, read-out: MIC values for microorganism U (Mycoplasma bovirhinis). On the procedure: as §1, §2
Another test has as its system Salmonella typhimurium. Nature of the test: MIC, serial dilution in phenol red-glucose broth. Type of test: cell-based. The note with it: bactericidal, complete inhibition of growth, 37° C.; for MIC: Salmonella enterica, TYPHIMURIUM, read-out: MIC values for microorganism N (Salmonella typhimurium). On the procedure: as §1
N--Salmonella typhimurium
as §2

For the next test, the system named is Streptococcus agalactiae. The test can be described thus: MIC, serial dilution in phenol red-glucose broth. The format is cell-based. Particulars: bactericidal, complete inhibition of growth, 37° C.; for MIC: Streptococcus agalactiae, read-out: MIC values for microorganism H (Streptococcus agalactiae). On the procedure:
as §1
H--Streptococcus agalactiae
as §2

The next test relates to Listeria monocytogenes. Nature of the test: MIC, serial dilution in phenol red-glucose broth. Type of test: cell-based. Particulars: bactericidal, complete inhibition of growth, 37° C.; for MIC: Listeria monocytogenes, read-out: MIC values for microorganism L (Listeria monocytogenes). On the procedure:
as §1
L--Listeria monocytogenes
as §2

In test [1] the test system is Fusobacterium necrophorum. Nature of the test: MIC, agar dilution method on bloody agar. The format is cell-based. The note with it: agar dilution method on bloody agar containing tryptose, 37° C.; for MIC: Fusobacterium necrophorum, read-out: MIC values for microorganism S (Fusobacterium necrophorum). On the procedure:
as §1
S--Fusobacterium necrophorum
as §3, §2

The test system of the next test is Mycoplasma bovis. The test can be described thus: MIC, serial dilution in phenol red-glucose broth. Particulars: bactericidal, complete inhibition of growth, 37° C.; for MIC: Mycoplasmopsis bovis, read-out: MIC values for microorganism T (Mycoplasma bovis). The format is cell-based. The procedure: as §1
Bacterial strains were cultivated at 37° C. whilst the fungal strain (Candida albicans) was propagated at 26° C. The minimum inhibitory concentrations (MIC values) showing a bactericidal effect, i.e. complete inhibition of the growth of microorganisms whereby the media inoculated remained sterile, are summarized in Table 1.

Another test deals with Aspergillus fumigatus. Nature of the test: MIC, serial dilution in Sabouraud's broth. Type of test: cell-based. Particulars: complete inhibition of growth; for MIC: Aspergillus fumigatus, read-out: MIC values for microorganism Z (Aspergillus fumigatus). The procedure: as §1
Z--Aspergillus fumigatus.
as §2

In another test the test system is Escherichia coli 17. Nature of the test: microbe, parasite or virus in culture. The note with it: for MIC: Escherichia coli, 17, read-out: MIC values for microorganism D (Escherichia coli 17). On the procedure: as §1, §2
The test system of the next test is Escherichia coli 494. Nature of the test: microbe, parasite or virus in culture. Particulars: for MIC: Escherichia coli, 494, read-out: MIC values for microorganism C (Escherichia coli 494). On the procedure:
as §1, §2

A further test deals with Staphylococcus aureus. Nature of the test: microbe, parasite or virus in culture. Particulars: for MIC: Staphylococcus aureus, read-out: MIC values for microorganism A (Staphylococcus aureus). On the procedure:
as §1, §2

The test system of another test is Corynebacterium pyogenes. The test can be described thus: MIC, serial dilution in phenol red-glucose broth. Type of test: cell-based. Particulars: bactericidal, complete inhibition of growth, 37° C.; for MIC: Corynebacterium pyogenes, read-out: MIC values for microorganism M (Corynebacterium pyogenes). The procedure:
as §1
M--Corynebacterium pyogenes
as §2

Test [2] has as its system Streptococcus dysgalactiae. The test can be described thus: MIC, serial dilution in phenol red-glucose broth. Type of test: cell-based. The note with it: bactericidal, complete inhibition of growth, 37° C.; for MIC: Streptococcus dysgalactiae, read-out: MIC values for microorganism I (Streptococcus dysgalactiae). The procedure: as §1
I--Streptococcus dysgalactiae
as §2

Test [3] has as its system Streptococcus zooepidemicus. The test can be described thus: MIC, serial dilution in phenol red-glucose broth. Type of test: cell-based. Particulars: bactericidal, complete inhibition of growth, 37° C.; for MIC: Streptococcus equi, read-out: MIC values for microorganism B (Streptococcus zooepidemicus). The procedure:
as §1
B--Streptococcus zooepidemicus
as §2

The subject of another test is Bacteroides fragilis. Nature of the test: MIC, agar dilution method on bloody agar. Type of test: cell-based. Particulars: agar dilution method on bloody agar containing tryptose, 37° C.; for MIC: Bacteroides fragilis, read-out: MIC values for microorganism R (Bacteroides fragilis). The procedure: as §1, §3, §2
In general terms: In agar dilution, organisms are placed on agar that contains the substance at set levels.

[4] abbreviates: complete inhibition of growth, Sabouraud's broth, 26° C.
Setting [5] is: bactericidal, complete inhibition of growth, phenol red-glucose broth, 37° C.

Positions of bridges follow the written chain, without caps; N, C: chain ends. Non-standard residues stand in square brackets, D forms with d. Residues, ends and D or L forms follow the SMILES beside them. *: point of attachment. Octanoyl(6-Me) = CCC(C)CCCCC(=O)*; Dab = NCC[CH](N)C(=O)O

With `CCC(C)CCCCC(=O)NC(CCN)C(=O)NC(C(=O)NC(CCN)C(=O)NC1CCNC(=O)C(C(C)O)NC(=O)C(CCN)NC(=O)C(CCN)NC(=O)C(CC(C)C)NC(=O)C(Cc2ccccc2)NC(=O)C(CCN)NC1=O)C(C)O` (stereo not drawn) [Polymyxin B, 6,9,18-tris(2-aminoethyl)-15-benzyl-21-[2,8-bis(2-aminoethyl)-5-(1-hydroxyethyl)-15-methyl-4,7,10-trioxo-3,6,9-triazaheptadecanamido]-3-(1-hydroxyethyl)-12-isobutyl-1,4,7,10,13,16,19-heptaazacyclotricosane-2,5,8,11,14,17,20-heptaone] ({Octanoyl(6-Me)}-[Dab]T[Dab][Dab][Dab]FL[Dab][Dab]T; lactam 4-C; configuration not given here), the “MIC values for microorganism F (Pseudomonas aeruginosa)” value in the test with Pseudomonas aeruginosa came to 0.5 µg/mL. Also, the “MIC values for microorganism K (Streptococcus faecalis)” value in the test with Streptococcus faecalis was 200 µg/mL. The “MIC values for microorganism G (Candida albicans)” value in the test with Candida albicans (setting [4]) turned out to be 200 µg/mL. Further, in the test on Candida albicans (substance alone), the “fungicidal action, in words” value is given as “practically no fungicidal action”. Moreover, the “MIC values for microorganism O (Campylobacter fetus)” value in the test with Campylobacter fetus came out at 0.5 µg/mL. Moreover, the “MIC values for microorganism P (Campylobacter jejuni)” value in the test with Campylobacter jejuni was determined as 5 µg/mL. For the same molecule, the “MIC values for microorganism J (Streptococcus uberis)” value in the test on Streptococcus uberis came to 10 µg/mL. The “MIC values for microorganism E (Klebsiella pneumoniae)” value in the test with Klebsiella pneumoniae was found to be 5 µg/mL. Besides, the “MIC values for microorganism V (Mycoplasma canadense)” value with Mycoplasma canadense worked out at 32 µg/mL. The “MIC values for microorganism U (Mycoplasma bovirhinis)” value in the test with Mycoplasma bovirhinis came to 32 µg/mL. Besides, the “MIC values for microorganism N (Salmonella typhimurium)” value in the test on Salmonella typhimurium came to 1 µg/mL. For the same molecule, in the test with Streptococcus agalactiae, the “MIC values for microorganism H (Streptococcus agalactiae)” value is 5 µg/mL. Also, in the test on Listeria monocytogenes, the “MIC values for microorganism L (Listeria monocytogenes)” value was determined as 5 µg/mL. Besides, in [1], the “MIC values for microorganism S (Fusobacterium necrophorum)” value amounted to 200 µg/mL. Besides, in the test with Mycoplasma bovis, the “MIC values for microorganism T (Mycoplasma bovis)” value worked out at 32 µg/mL. Moreover, the “MIC values for microorganism Z (Aspergillus fumigatus)” value with Aspergillus fumigatus amounted to 200 µg/mL. The “MIC values for microorganism D (Escherichia coli 17)” value in the test with Escherichia coli 17 (setting [5]) amounted to 0.5 µg/mL. Moreover, the “MIC values for microorganism C (Escherichia coli 494)” value in the test with Escherichia coli 494 (setting [5]) was determined as 0.5 µg/mL. The “MIC values for microorganism A (Staphylococcus aureus)” value in the test on Staphylococcus aureus (setting [5]) came out at 50 µg/mL. Further, in the test with Corynebacterium pyogenes, the “MIC values for microorganism M (Corynebacterium pyogenes)” value came out at 200 µg/mL. Besides, the “MIC values for microorganism I (Streptococcus dysgalactiae)” value in [2] was determined as 5 µg/mL. Also, in test [3], the “MIC values for microorganism B (Streptococcus zooepidemicus)” value worked out at 5 µg/mL. In addition, in the test on Bacteroides fragilis, the “MIC values for microorganism R (Bacteroides fragilis)” value stood at 200 µg/mL.

With `Clc1ccccc1C(c1ccccc1)(c1ccccc1)n1ccnc1` [Clotrimazole, 1-(2-chlorophenyl)-diphenylmethyl-1H-imidazole], the MIC in the test on Pseudomonas aeruginosa was over 200 µg/mL; in the test on Streptococcus faecalis, 5 µg/mL; in the test with Candida albicans (setting [4]) it was 5 µg/mL; in the test on Campylobacter fetus, 100 µg/mL; in the test with Campylobacter jejuni it was 100 µg/mL; with Streptococcus uberis, 0.5 µg/mL. Further, the MIC in the test on Klebsiella pneumoniae was over 200 µg/mL; with Mycoplasma canadense, 32 µg/mL; with Mycoplasma bovirhinis, 32 µg/mL; with Salmonella typhimurium it was 200 µg/mL; in the test on Streptococcus agalactiae, 5 µg/mL; with Listeria monocytogenes, 5 µg/mL. Further, the MIC in test [1] is 100 µg/mL; in the test with Mycoplasma bovis, 32 µg/mL; in the test with Aspergillus fumigatus, 1 µg/mL; in the test on Escherichia coli 17 it was over 200 µg/mL; in the test with Escherichia coli 494, over 200 µg/mL; in the test on Staphylococcus aureus, 0.5 µg/mL. Besides, the MIC amounted to 25 µg/mL in the test with Corynebacterium pyogenes, 0.5 µg/mL in test [2], 0.5 µg/mL in [3] and 200 µg/mL in the test with Bacteroides fragilis. For the same molecule, the “effect on Escherichia coli strains, in words” value in the test on Escherichia coli 17 (substance alone) and with Escherichia coli 494 (substance alone) was “very weak effect” throughout.

`Cc1ccc2c(Cl)cc(Cl)c(O)c2n1` [Chlorquinaldol, 2-methyl-5,7-dichloro-8-hydroxyquinoline]: the MIC in the test with Pseudomonas aeruginosa is 200 µg/mL; with Streptococcus faecalis, 5 µg/mL; with Candida albicans (setting [4]), 1 µg/mL; in the test on Campylobacter fetus, 10 µg/mL; with Campylobacter jejuni it was 5 µg/mL; in the test with Streptococcus uberis it was 0.5 µg/mL. In addition, the MIC was 200 µg/mL in the test with Klebsiella pneumoniae; 8 µg/mL with Mycoplasma canadense; 4 µg/mL with Mycoplasma bovirhinis; 200 µg/mL with Salmonella typhimurium; 0.5 µg/mL in the test on Streptococcus agalactiae; 1 µg/mL with Listeria monocytogenes. Also, the MIC came to 3 µg/mL in [1]; 32 µg/mL with Mycoplasma bovis; 25 µg/mL in the test on Aspergillus fumigatus; 5 µg/mL in the test on Escherichia coli 17; 5 µg/mL with Escherichia coli 494; 5 µg/mL in the test on Staphylococcus aureus. For the same molecule, the MIC in the test on Corynebacterium pyogenes came out at 5 µg/mL; in test [2], 0.5 µg/mL; in test [3], 0.5 µg/mL; in the test with Bacteroides fragilis, 1.5 µg/mL.
